Experimental data as given in patent US4656274A, “Polyfluorinated substituted tricyclic quinoline mono and dioxo antifungal agents and process for their preparation” (Ortho Pharmaceutical Corporation, priority 1985, dated 1987).
In brackets after ≈: the same amount, converted by molar mass.

Columns and labels:
Test in all cases: Microbiological minimum inhibitory concentration test (agar dilution)
Format in all cases: cell-based
[1] = test system: Microsporum gypseum ATCC 14683; conditions: Nannizzia gypsea, ATCC14683, Mycophil Agar with low pH, 32° C., growth read at 24 and 48 hours and 7 days, read-out: MIC (minimal inhibitory concentration)
Protocol: (§1) The antifungal activity of the polyfluorinated substituted quinoline mono- and dioxo compounds was determined according to the following procedure:
(§2) MICROBIOLOGICAL MINIMUM INHIBITORY CONCENTRATION TEST
Microsporum gypseum ATCC 14683
(§3) Mycophil Agar with low pH
(§4) A 0.5 mg/ml stock solution of each compound was volumetrically prepared in an appropriate solvent From this stock, 1:2 serial dilutions were prepared in sterile distilled water. Two ml aliquots of the stock and serial dilutions were added to tubes containing 18 ml of mycophil agar (46°-50° C.). Mixtures were poured into square 100×15 mm petri dishes and allowed to solidify.
(§5) All test organisms, except Candida albicans were harvested from six day mycophil agar slants. Candida albicans was diluted from a frozen stock culture. Inocula were diluted with sterile saline to contain approximately 1×10^8 CFUs per ml. Plate counts were performed on 1 ml of all inocula.
(§6) Each plate and appropriate solvent and unadulterated agar growth control was inoculated in duplicate with the inocula prepared above using a Steer's Replicator method.
(§7) Plates were then incubated at 32° C. Observations for growth were made at 24 and 48 hours and 7 days.
(§8) These MIC data are found in Table I.

[2] = test system: Epidermophyton floccosum ATCC 15693; conditions: ATCC15693, Mycophil Agar with low pH, 32° C., growth read at 24 and 48 hours and 7 days, read-out: MIC (minimal inhibitory concentration)
Protocol: as §1, §2
Epidermophyton floccosum ATCC 15693
as §3, §4, §5, §6, §7, §8

[3] = test system: Candida albicans ATCC 10231; conditions: ATCC10231, Mycophil Agar with low pH, 32° C., growth read at 24 and 48 hours and 7 days, read-out: MIC (minimal inhibitory concentration)
Protocol: as §1, §2
Candida albicans ATCC 10231
as §3, §4, §5, §6, §7, §8

[4] = test system: Trichophyton rubrum ATCC 10218; conditions: ATCC10218, Mycophil Agar with low pH, 32° C., growth read at 24 and 48 hours and 7 days, read-out: MIC (minimal inhibitory concentration)
Protocol: as §1, §2
Trichophyton rubrum ATCC 10218
as §3, §4, §5, §6, §7, §8

[5] = test system: Trichophyton mentagrophytes ATCC 22839; conditions: ATCC22839, Mycophil Agar with low pH, 32° C., growth read at 24 and 48 hours and 7 days, read-out: MIC (minimal inhibitory concentration)
Protocol: as §1, §2
Trichophyton mentagrophytes ATCC 22839
as §3, §4, §5, §6, §7, §8

[6] = test system: Microsporum canis JJP #143; conditions: Mycophil Agar with low pH, 32° C., growth read at 24 and 48 hours and 7 days, read-out: MIC (minimal inhibitory concentration)
Protocol: as §1, §2
Microsporum canis JJP #143
as §3, §4, §5, §6, §7, §8

| MIC [1] [µg/mL] | MIC [2] [µg/mL] | MIC [3] [µg/mL] | MIC [4] [µg/mL] | MIC [5] [µg/mL] | MIC [6] [µg/mL] | SMILES |
| --- | --- | --- | --- | --- | --- | --- |
| 4.6 (≈ 14.7 µM) | 0.39 (≈ 1.25 µM) | 50 (≈ 160 µM) | 1.6 (≈ 5.11 µM) | 25 (≈ 79.8 µM) | 25 (≈ 79.8 µM) | Cn1c(=O)c2cc3c(F)c(F)c(F)c(F)c3nc2n(C)c1=O [I, 5,6,7,8-Tetrafluoro-1,3-dimethylpyrimidinol[6,5-b]quinolin-2,4-dione] |
| 9.4 (≈ 31.6 µM) | 1.5 (≈ 5.05 µM) | 50 (≈ 168 µM) | 6.2 (≈ 20.9 µM) | 6.2 (≈ 20.9 µM) | 25 (≈ 84.1 µM) | CC1(C)CC(=O)c2cc3c(F)c(F)c(F)c(F)c3nc2C1 [II, 5,6,7,8-Tetrafluoro-2,2-dimethylbenzo[2,1-b]quinolin-4-one] |
